IC50 data for two molecules are collected here from article PMC6017115, “Inhibitory Effect of Sauchinone on UDP-Glucuronosyltransferase (UGT) 2B7 Activity” (Molecules : A Journal of Synthetic Chemistry and Natural …, 2018).

One test addresses T1, UGT1A6 (Homo sapiens, UniProt P19224).
T1 construct: tissue Corning Life Sciences 452156; host or cells: pooled human liver microsomes
T1 sequence (P19224 27-532): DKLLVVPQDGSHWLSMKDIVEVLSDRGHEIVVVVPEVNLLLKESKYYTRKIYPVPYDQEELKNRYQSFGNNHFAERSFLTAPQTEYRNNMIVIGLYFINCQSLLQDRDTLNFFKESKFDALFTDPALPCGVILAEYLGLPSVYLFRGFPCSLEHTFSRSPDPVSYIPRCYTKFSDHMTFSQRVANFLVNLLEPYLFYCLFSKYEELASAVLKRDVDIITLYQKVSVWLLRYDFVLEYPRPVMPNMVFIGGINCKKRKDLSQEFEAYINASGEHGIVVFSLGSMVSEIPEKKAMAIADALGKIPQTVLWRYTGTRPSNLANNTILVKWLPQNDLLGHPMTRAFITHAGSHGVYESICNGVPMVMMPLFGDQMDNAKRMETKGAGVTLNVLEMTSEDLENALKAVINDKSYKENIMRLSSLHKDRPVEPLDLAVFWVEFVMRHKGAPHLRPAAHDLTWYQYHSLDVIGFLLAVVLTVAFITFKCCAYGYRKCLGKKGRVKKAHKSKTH
Put plainly: Inhibition of UGT1A6 (serotonin glucuronidation) in human liver microsomes. In kind it is in vitro ADME. As for the experimental part:
(§1) Their IC50 values were compared to that of sauchinone. […] UGT-mediated activities in the presence of sauchinone as an inhibitor were expressed as percentages of corresponding control values (in absence of sauchinone). From percentages of control activity versus inhibitor concentrations, a sigmoid shaped curve was fitted to the data and IC50 as an enzyme inhibition parameter was calculated by fitting the Hill equation to the data using GraphPad Prism 5 (GraphPad Software Inc., San Diego, CA, USA).

Another test has as its target T2, UGT2B7 (Homo sapiens, UniProt P16662).
T2 sequence (P16662 24-529): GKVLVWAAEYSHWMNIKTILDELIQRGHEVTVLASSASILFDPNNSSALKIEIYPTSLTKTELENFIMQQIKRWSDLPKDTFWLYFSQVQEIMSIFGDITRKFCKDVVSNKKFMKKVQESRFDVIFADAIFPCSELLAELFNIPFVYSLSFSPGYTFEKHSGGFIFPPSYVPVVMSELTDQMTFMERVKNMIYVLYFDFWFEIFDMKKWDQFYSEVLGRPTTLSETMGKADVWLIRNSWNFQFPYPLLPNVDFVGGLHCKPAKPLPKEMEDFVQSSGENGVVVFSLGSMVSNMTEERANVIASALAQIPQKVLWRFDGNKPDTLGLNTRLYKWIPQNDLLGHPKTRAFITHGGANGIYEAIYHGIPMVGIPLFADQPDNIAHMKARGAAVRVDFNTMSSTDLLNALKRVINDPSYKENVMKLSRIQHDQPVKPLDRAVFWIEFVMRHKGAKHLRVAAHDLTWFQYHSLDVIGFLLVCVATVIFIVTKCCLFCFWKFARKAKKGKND
Put plainly: Inhibition of UGT2B7 (zidovudine glucuronidation) in human liver microsomes. In kind it is in vitro ADME. The arrangement: tissue Corning Life Sciences 452156; host or cells: pooled human liver microsomes. The protocol:
as §1

As to `Oc1cccc2ccccc12` [1-Naphthol], on UGT1A6, the IC50 (usually the concentration at which inhibition is half-maximal) was 35.2 µM. `O=C1Nc2ccc(Cl)cc2[C@@](C#CC2CC2)(C(F)(F)F)O1` [Efavirenz] yielded a half-maximal inhibitory concentration (IC50) on UGT2B7 of 75.4 µM.
